Assay results published in PubChem BioAssay (NCI).
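Values below derive from 48-hour exposures of cells grown in 96-well plates, with endpoints linearly interpolated between the two concentrations bracketing the appropriate inhibition level. TGI: total growth inhibition.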

Columns and labels:
Assay in all cases: DTP human tumour cell line panel, 48 h
MDA-MB-435 = tested on: MDA-MB-435
SN12C renal = tested on: SN12C renal
HT29 colon = tested on: HT29 colon
NCI/ADR-RES ovarian = tested on: NCI/ADR-RES ovarian
SF-539 CNS = tested on: SF-539 CNS
UACC-257 melanoma = tested on: UACC-257 melanoma
U251 CNS = tested on: U251 CNS
MCF7 breast = tested on: MCF7 breast
HOP-92 NSCLC = tested on: HOP-92 NSCLC
OVCAR-4 ovarian = tested on: OVCAR-4 ovarian
SF-295 CNS = tested on: SF-295 CNS
SNB-75 CNS = tested on: SNB-75 CNS
A498 renal = tested on: A498 renal
EKVX NSCLC = tested on: EKVX NSCLC
MDA-N = tested on: MDA-N
MDA-MB-231 breast = tested on: MDA-MB-231 breast
SK-MEL-2 melanoma = tested on: SK-MEL-2 melanoma
T-47D breast = tested on: T-47D breast
COLO 205 colon = tested on: COLO 205 colon
OVCAR-3 ovarian = tested on: OVCAR-3 ovarian
HS 578T breast = tested on: HS 578T breast
MOLT-4 leukemia = tested on: MOLT-4 leukemia
NCI-H226 lung = tested on: NCI-H226 lung
KM12 colon = tested on: KM12 colon
SR leukemia = tested on: SR leukemia
SK-MEL-5 melanoma = tested on: SK-MEL-5 melanoma
PC-3 prostate = tested on: PC-3 prostate
RPMI-8226 leukemia = tested on: RPMI-8226 leukemia
NCI-H522 lung = tested on: NCI-H522 lung
HCT-15 colon = tested on: HCT-15 colon
DU-145 prostate = tested on: DU-145 prostate
NCI-H460 lung = tested on: NCI-H460 lung
TK-10 renal = tested on: TK-10 renal
BT-549 breast = tested on: BT-549 breast
CCRF-CEM leukemia = tested on: CCRF-CEM leukemia
IGROV1 ovarian = tested on: IGROV1 ovarian
M14 melanoma = tested on: M14 melanoma
RXF 393 renal = tested on: RXF 393 renal
HL-60(TB) leukemia = tested on: HL-60(TB) leukemia
LOX IMVI melanoma = tested on: LOX IMVI melanoma
HOP-62 NSCLC = tested on: HOP-62 NSCLC
HCT-116 colon = tested on: HCT-116 colon
SW-620 colon = tested on: SW-620 colon
CAKI-1 renal = tested on: CAKI-1 renal
UACC-62 melanoma = tested on: UACC-62 melanoma
SNB-19 CNS = tested on: SNB-19 CNS
HCC-2998 colon = tested on: HCC-2998 colon
UO-31 renal = tested on: UO-31 renal
K-562 leukemia = tested on: K-562 leukemia
ACHN renal = tested on: ACHN renal
786-0 renal = tested on: 786-0 renal
SK-OV-3 ovarian = tested on: SK-OV-3 ovarian
NCI-H23 lung = tested on: NCI-H23 lung
OVCAR-8 ovarian = tested on: OVCAR-8 ovarian
A549 NSCLC = tested on: A549 NSCLC
MALME-3M melanoma = tested on: MALME-3M melanoma
OVCAR-5 ovarian = tested on: OVCAR-5 ovarian
SK-MEL-28 melanoma = tested on: SK-MEL-28 melanoma
SF-268 CNS = tested on: SF-268 CNS

O=C(/N=C/c1c(O)c2ccccc2oc1=O)Oc1ccccc1
TGI (MDA-MB-435): 66.5 µM
TGI (SN12C renal): 51.7 µM
TGI (HT29 colon): > 100 µM
TGI (NCI/ADR-RES ovarian): 95.8 µM
TGI (SF-539 CNS): 42.2 µM
TGI (UACC-257 melanoma): 92.2 µM
TGI (U251 CNS): 87.5 µM
TGI (MCF7 breast): > 100 µM
TGI (HOP-92 NSCLC): 79.9 µM
TGI (OVCAR-4 ovarian): 65.8 µM
TGI (SF-295 CNS): > 100 µM
TGI (SNB-75 CNS): 68.4 µM
TGI (A498 renal): 46.2 µM
TGI (EKVX NSCLC): > 100 µM
TGI (MDA-N): 86.7 µM
TGI (MDA-MB-231 breast): 84.1 µM
TGI (SK-MEL-2 melanoma): 36.1 µM
TGI (T-47D breast): 91.9 µM
TGI (COLO 205 colon): > 100 µM
TGI (OVCAR-3 ovarian): 44.2 µM
TGI (HS 578T breast): 32.1 µM
TGI (MOLT-4 leukemia): 96.4 µM
TGI (NCI-H226 lung): 44.9 µM
TGI (KM12 colon): > 100 µM
TGI (SR leukemia): > 100 µM
TGI (SK-MEL-5 melanoma): > 100 µM
TGI (PC-3 prostate): > 100 µM
TGI (RPMI-8226 leukemia): > 100 µM
TGI (NCI-H522 lung): > 100 µM
TGI (HCT-15 colon): > 100 µM
TGI (DU-145 prostate): > 100 µM
TGI (NCI-H460 lung): > 100 µM
TGI (TK-10 renal): 79.6 µM
TGI (BT-549 breast): 81 µM
TGI (CCRF-CEM leukemia): > 100 µM
TGI (IGROV1 ovarian): 60.7 µM
TGI (M14 melanoma): > 100 µM
TGI (RXF 393 renal): 31.1 µM
TGI (HL-60(TB) leukemia): > 100 µM
TGI (LOX IMVI melanoma): 80.9 µM
TGI (HOP-62 NSCLC): 43.6 µM
TGI (HCT-116 colon): 71.8 µM
TGI (SW-620 colon): > 100 µM
TGI (CAKI-1 renal): 94.6 µM
TGI (UACC-62 melanoma): 79.7 µM
TGI (SNB-19 CNS): > 100 µM
TGI (HCC-2998 colon): > 100 µM
TGI (UO-31 renal): 63.6 µM
TGI (K-562 leukemia): > 100 µM
TGI (ACHN renal): > 100 µM
TGI (786-0 renal): 85.7 µM
TGI (SK-OV-3 ovarian): 66 µM
TGI (NCI-H23 lung): 68.5 µM
TGI (OVCAR-8 ovarian): 91.9 µM
TGI (A549 NSCLC): > 100 µM
TGI (MALME-3M melanoma): 61.7 µM
TGI (OVCAR-5 ovarian): > 100 µM

OCc1ccn2c1[C@@H](O)CC2
TGI (MDA-MB-435): > 100 µM
TGI (SN12C renal): > 100 µM
TGI (HT29 colon): > 100 µM
TGI (NCI/ADR-RES ovarian): > 100 µM
TGI (SF-539 CNS): > 100 µM
TGI (UACC-257 melanoma): > 100 µM
TGI (U251 CNS): > 100 µM
TGI (MCF7 breast): > 100 µM
TGI (HOP-92 NSCLC): > 100 µM
TGI (OVCAR-4 ovarian): > 100 µM
TGI (SF-295 CNS): > 100 µM
TGI (SNB-75 CNS): > 100 µM
TGI (A498 renal): > 100 µM
TGI (EKVX NSCLC): > 100 µM
TGI (MDA-N): > 100 µM
TGI (MDA-MB-231 breast): > 100 µM
TGI (SK-MEL-2 melanoma): > 100 µM
TGI (T-47D breast): > 100 µM
TGI (COLO 205 colon): > 100 µM
TGI (OVCAR-3 ovarian): > 100 µM
TGI (HS 578T breast): > 100 µM
TGI (MOLT-4 leukemia): > 100 µM
TGI (NCI-H226 lung): > 100 µM
TGI (KM12 colon): > 100 µM
TGI (SR leukemia): > 100 µM
TGI (SK-MEL-5 melanoma): > 100 µM
TGI (PC-3 prostate): > 100 µM
TGI (RPMI-8226 leukemia): > 100 µM
TGI (NCI-H522 lung): > 100 µM
TGI (HCT-15 colon): > 100 µM
TGI (DU-145 prostate): > 100 µM
TGI (NCI-H460 lung): > 100 µM
TGI (TK-10 renal): > 100 µM
TGI (BT-549 breast): > 100 µM
TGI (CCRF-CEM leukemia): > 100 µM
TGI (IGROV1 ovarian): > 100 µM
TGI (M14 melanoma): > 100 µM
TGI (RXF 393 renal): > 100 µM
TGI (HL-60(TB) leukemia): > 100 µM
TGI (LOX IMVI melanoma): > 100 µM
TGI (HOP-62 NSCLC): > 100 µM
TGI (HCT-116 colon): > 100 µM
TGI (SW-620 colon): > 100 µM
TGI (CAKI-1 renal): > 100 µM
TGI (UACC-62 melanoma): > 100 µM
TGI (SNB-19 CNS): > 100 µM
TGI (HCC-2998 colon): > 100 µM
TGI (K-562 leukemia): > 100 µM
TGI (ACHN renal): > 100 µM
TGI (786-0 renal): > 100 µM
TGI (SK-OV-3 ovarian): > 100 µM
TGI (NCI-H23 lung): > 100 µM
TGI (OVCAR-8 ovarian): > 100 µM
TGI (SK-MEL-28 melanoma): > 100 µM
TGI (A549 NSCLC): > 100 µM
TGI (MALME-3M melanoma): > 100 µM
TGI (OVCAR-5 ovarian): > 100 µM
TGI (SF-268 CNS): > 100 µM
